Columns and labels:
[1] = Aggregation of polyamide capsules (Example 2 method); assay type: physicochemical; parameters: key to Encapsulation, No precursor (scale of aggregation) / Encapsulation, With precursor (scale of aggregation): ∘: no aggregation of the capsules; +: aggregation of few capsules together only visible under microscopy; ++: aggregates of mm size; +++: important aggregation; ++++: aggregation is such that a cake is obtained; conditions: for Encapsulation, No precursor (scale of aggregation): free aldehyde as phase B at 5% in phase A of Table 1; for Encapsulation, With precursor (scale of aggregation): precursor of the aldehyde (Method 1.1) as phase B at 5% in phase A of Table 1
Procedure: An oil phase was prepared by dissolving isophtahaloyl dichloride (Fluka) in oil (oil composition specified in the examples below) at a level of 10%
An aqueous solution (Solution S1) was prepared by dissolving a polyvinyl alcohol Mowiol 4-88 (Kuru ray) in water at a level of 1%.
An aqueous solution (Solution S2) was prepared when triethylentetraamine (Hunstman) was diluted in water at a level of 3%.
100 g of the oil phase was mixed with 450 g of solution S1 to form an oil-in-water emulsion in a 1 L reactor equipped with a MIG stirrer operating at 1000 rpm. After 5 minutes of mixing, 450 g of solution S2 was slowly added. The resultant slurry of polyamide capsules was kept under stirring for 2 H.
Two capsule populations were formed. A first encapsulating IPM (isopropyl myristate) and a second containing IPM+5% of ethyl vaniline. The capsules were made according to the method of Example 2.
The methodology of Example 2 was applied to encapsulate different perfume oils described as phase A (non aldehyde raw materials) and phase B (aldehyde raw materials).
The phase B was added at 5% to the phase A prior to encapsulation. Different compositions of phase B have been used corresponding each time to a single aldehyde perfume molecule or to its precursor formed according to the methodology of Method 1.1, above.
According to the condition of the slurry a scale of aggregation has been defined as follows: […]
(§1) ∘ no aggregation of the capsules + aggregation of few capsules together only visible under microscopy ++ aggregates of mm size +++ important aggregation ++++ aggregation is such that a cake is obtained

[2] = Aggregation of polyurea capsules, Method 5.5; assay type: physicochemical; parameters: key: ∘: no aggregation of the capsules; +: aggregation of few capsules together only visible under microscopy; ++: aggregates of mm size; +++: important aggregation; ++++: aggregation is such that a cake is obtained; conditions: polyurea Method 5.5, phase A of Table 1; for Encapsulation, No precursor (scale of aggregation): free aldehyde as phase B; for Encapsulation, With precursor (scale of aggregation): precursor (Method 1.1) as phase B
Procedure: An oil phase was prepared when Desmodur W and Desmodur N3300 (Bayer) were added in perfume oil at a level of 2.2% and 13% respectively.
An aqueous phase (Solution S1) was prepared when Gantrez AN119 (ISP) was added to water, at a level of 1.6%. The solution was heated at 70° C. for 10 min to disperse the polymer.
An aqueous phase (Solution S2) was prepared when Ethylene diamine (Merck) was added to water, at a level of 7.5%.
30 g of the oil phase was mixed with 80 g of solution S1, to form an oil-in-water emulsion, in a 250 mL vessel equipped with a propeller operating at 1000 rpm.
After 10 min of stirring, 20 g of solution S2 was added.
The slurry was stirred for 30 min at room temperature, then heated to 60° C. and stirred for 3 H at 60° C. before cooling.
The Method 5.5 of Example 5 was applied to encapsulate different perfume oils described as phase A (non aldehyde raw materials) and phase B (aldehyde raw materials).
The composition of Phase A was described in Table 1 above. Phase B is an aldehyde perfume molecule used as such or as its precursor form prepared according to Method 1.1.
According to the aspect of the slurry a scale of aggregation was defined as follow: […]
as §1
Phase B was added at a level of 20% of aldehyde in phase A.

[3] = Aggregation of polyurea capsules, Method 5.6; assay type: physicochemical; parameters: key: ∘: no aggregation of the capsules; +: aggregation of few capsules together only visible under microscopy; ++: aggregates of mm size; +++: important aggregation; ++++: aggregation is such that a cake is obtained; conditions: polyurea Method 5.6, phase A of Table 1; for Encapsulation, No precursor (scale of aggregation): free aldehyde as phase B; for Encapsulation, With precursor (scale of aggregation): precursor (Method 1.1) as phase B
Procedure: An oil phase was prepared when Desmodur VL R20 (Bayer) was added in perfume oil at a level of 2.5%.
An aqueous phase (Solution S1) was prepared when Mowiol 4-88 (Kururay) was added in water, at a level of 0.1%.
An aqueous phase (Solution S2) was prepared when diethylentriamine (Merck) was added in water, at a level of 2%.
100 g of oil phase was mixed with 250 g of solution S1, to form an oil-in-water emulsion, in a 500 mL vessel equipped with a propeller operating at 1000 rpm.
After 10 min of stirring, 50 g of solution S2 was added.
The slurry was stirred for 4 h at room temperature.
The Method 5.6 of Example 5 was applied to encapsulate different perfume oils described as phase A (non aldehyde raw materials) and phase B (aldehyde raw materials).
The composition of Phase A is described in Table 1. Phase B is an aldehyde perfume molecule used as such or as its precursor form prepared according to Method 1.1.
According to the aspect of the slurry a scale of aggregation has been defined as follow: […]
as §1

[4] = Aggregation of polyurea capsules, Method 5.7; assay type: physicochemical; conditions: polyurea Method 5.7; phase B at 5% in phase A of Table 1
Procedure: An oil phase was prepared when Desmodur N3300 (Bayer) was added in perfume oil at a level of 6.7%.
An aqueous phase (Solution S1) was prepared when_Mowiol 4-88 (Kururay) was added in water, at a level of 1.1%.
An aqueous phase (Solution S2) was prepared when Hydrosil 1151 (Evonik) was added in water, at a level of 75%.
134 g of oil phase was mixed with 440 g of solution 51, to form an oil-in-water emulsion, in a 1 L vessel equipped with a propeller operating at 1000 rpm.
After 10 min of stirring, 45 g of solution S2 was added.
[…] the slurry was kept at 40° C. for 2 h more before cooling.
The Method 5.7 of Example 5 was applied to encapsulate different perfume oils described as phase A (non aldehyde raw materials) and phase B (aldehyde raw materials).
The composition of Phase A is described in Table 1. Phase B is an aldehyde perfume molecule used as such or as its precursor form added at a level of 5% in Phase A.

[5] = Aggregation of polyurea capsules, Method 5.1; assay type: physicochemical
Procedure: An oil phase was prepared by adding Desmodur W (Isocyanate from Bayer) to a perfume oil at a level of 16.6%.
An aqueous phase (solution S1) was prepared by adding Luviskol k90 (BASF) to water, at a level of 4.5%. The pH of the solution was adjusted to 11.5 by addition of NaOH at 10%.
An aqueous phase (Solution S2) was prepared when Lupasol PR8515 (BASF) was added to water, at a level of 10%.
300 g of the oil phase was mixed with 500 g of solution S1, to form an oil-in-water emulsion, in a 1 L reactor equipped with a MIG stirrer operating at 1000 rpm.
After 30 minutes of mixing, 200 g of solution S2 was added over a period of 1 minute.
After 30 minutes, the slurry was heated up to 70° C. (1 H), then kept for 2 H at 70° C., then heated to 80° C. and kept for 1 H at 80° C., then heated to 85° C. and kept for 1 H at 85° C., then cooled to 70° C. and kept for 1 H at 70° C. before final cooling at 25° C.
The Method 5.1 of Example 5 was applied to encapsulate different perfume oils described as phase A (non aldehyde raw materials) and phase B (aldehyde raw materials).
In the following trials, phase A was IPM and phase B was aldehyde perfume molecules. Phase B was added at a level of 5% in phase A.
Phase B contains aldehyde C11 iso or the corresponding precursor prepared according to Method 1.1.
Phase B was added at a level of 5% in phase A.

[6] = Aggregation of polyurea capsules, Method 5.4; assay type: physicochemical; conditions: polyurea Method 5.4; phase B at 4% of aldehyde in phase A
Procedure: An oil phase was prepared when Desmodur W (Bayer) was added in perfume oil at a level of 16.6%.
An aqueous phase (Solution S1) was prepared when Mowiol 40-88 (Kururay) was added in water, at a level of 4.5%.
An aqueous phase (Solution S2) was prepared when Lupasol PR8515 (BASF) was added in water, at a level of 10%.
240 g of oil phase was mixed with 640 g of solution S1, to form an oil-in-water emulsion, in a 1 L reactor equipped with a mig operating at 1000 rpm.
After 30 min, the slurry is heated up to 50° C. and the solution S2 is slowly added (1 H).
The slurry is then heated up to 70° C. and kept for 2 H at 70° C., then heated to 80° C. and kept for 1 H at 80° C., then heated to 85° C. and kept for 1 H at 85° C., then cooled to 70° C. and kept for 1 H at 70° C. before final cooling at 25° C.
The Method 5.4 of Example 5 was applied to encapsulate different perfume oils described as phase A (non aldehyde raw materials) and phase B (aldehyde raw materials).
Phase B is tricyclal or the precursor of tricyclal obtained according to Method 1.1.
Phase B was added at a level of 4% of aldehyde in phase A.

[7] = Water solubility of the aldehyde

Structure (SMILES) | Encapsulation, No precursor (scale of aggregation) [1] | Encapsulation, With precursor (scale of aggregation) [1] | Encapsulation, No precursor (scale of aggregation) [2] | Encapsulation, With precursor (scale of aggregation) [2] | Encapsulation, No precursor (scale of aggregation) [3] | Encapsulation, With precursor (scale of aggregation) [3] | Slurry aspect [4] | Quality of the capsules examined microscopically ([5]; IPM + aldehyde) | Encapsulation (aggregation) ([5]; free aldehyde at 5% in IPM) | Aggregation of the capsules obtained [6] | Water solubility ([7]; Table 2) [ppm] | Water solubility ([7]; Table 3) [ppm] | Water solubility ([7]; Table of Example 11) [ppm] | Water solubility ([7]; Table of Example 13) [ppm]
CC(C=O)Cc1ccc(C(C)(C)C)cc1 (centres unmarked) [Lilial] | ++ | ∘ | ∘ | ∘ | ∘ | ∘ | cake |  |  |  |  |  |  | 
CC1=CC(C)C(C=O)CC1 (centres unmarked) [Tricyclal] | ++++ | ∘ | ++++ | ∘ | +++ | ∘ |  | aggregated | Aggregation | slightly aggregated | 700 | 700 | 700 | 700
